# According to patent US10004701B2, “Methods and compositions for treating infection” (UNIVERSITY OF ROCHESTER, priority 2012, dated 2018):
# Counter-ions that a name gives are not always drawn. Like-named read-outs stand apart in the source and are kept apart here.
# Key:
# Experiment in all cases: AK assay 384-well format, Prestwick library screening
# [1] = system: S. aureus strain USA300-0114; assay type: cell-based, Staphylococcus aureus; conditions: 50 μM final drug concentration; for fold induction at 50 µM: Staphylococcus aureus, USA300, 3 h
# [2] = system: E. cloacae; assay type: cell-based, Enterobacter cloacae; conditions: 50 μM final drug concentration; for fold induction at 50 µM: Enterobacter cloacae, 3 h
# [3] = system: A. baumannii strain 98-37-09; assay type: cell-based, Acinetobacter baumannii; conditions: 50 μM final drug concentration; for fold induction at 50 µM: Acinetobacter baumannii, 983709, 3 h
# [4] = system: E. faecium; assay type: cell-based, Enterococcus faecium; conditions: 50 μM final drug concentration; for fold induction at 50 µM: Enterococcus faecium, 3 h
# [5] = system: P. aeruginosa; assay type: cell-based, Pseudomonas aeruginosa; conditions: 50 μM final drug concentration; for fold induction at 50 µM: Pseudomonas aeruginosa, 3 h
# [6] = system: K. pneumoniae; assay type: cell-based, Klebsiella pneumoniae; conditions: 50 μM final drug concentration; for fold induction at 50 µM: Klebsiella pneumoniae, 3 h
# [7] = system: E. coli; assay type: cell-based, Escherichia coli; conditions: 50 μM final drug concentration; for fold induction at 50 µM: Escherichia coli, 3 h
# [8] = 384-well format, cutoff for positive-scoring molecules 3-fold increase, read-out: AK-based Prestwick Library Screening Results, S. aureus (increase in extracellular AK activity)
# [9] = 384-well format, cutoff for positive-scoring molecules 3-fold increase, read-out: AK-based Prestwick Library Screening Results, E. cloacae (increase in extracellular AK activity)
# [10] = 384-well format, cutoff for positive-scoring molecules 3-fold increase, read-out: AK-based Prestwick Library Screening Results, A. baumannii (increase in extracellular AK activity)
# [11] = 384-well format, cutoff for positive-scoring molecules 3-fold increase, read-out: AK-based Prestwick Library Screening Results, E. faecium (increase in extracellular AK activity)
# [12] = 384-well format, cutoff for positive-scoring molecules 3-fold increase, read-out: AK-based Prestwick Library Screening Results, P. aeruginosa (increase in extracellular AK activity)
# [13] = 384-well format, cutoff for positive-scoring molecules 3-fold increase, read-out: AK-based Prestwick Library Screening Results, K. pneumoniae (increase in extracellular AK activity)
# [14] = 384-well format, cutoff for positive-scoring molecules 3-fold increase, read-out: AK-based Prestwick Library Screening Results, E. coli (increase in extracellular AK activity)
# [15] = planktonic, cutoff for positive 3-fold increase, read-out: AK-based Prestwick Library Screening Results, S. aureus (fold increase in extracellular AK activity)
# [16] = planktonic, cutoff for positive 3-fold increase, read-out: AK-based Prestwick Library Screening Results, E. cloacae (fold increase in extracellular AK activity)
# [17] = planktonic, cutoff for positive 3-fold increase, read-out: AK-based Prestwick Library Screening Results, A. baumannii (fold increase in extracellular AK activity)
# [18] = planktonic, cutoff for positive 3-fold increase, read-out: AK-based Prestwick Library Screening Results, E. faecium (fold increase in extracellular AK activity)
# [19] = planktonic, cutoff for positive 3-fold increase, read-out: AK-based Prestwick Library Screening Results, P. aeruginosa (fold increase in extracellular AK activity)
# [20] = planktonic, cutoff for positive 3-fold increase, read-out: AK-based Prestwick Library Screening Results, K. pneumoniae (fold increase in extracellular AK activity)
# [21] = planktonic, cutoff for positive 3-fold increase, read-out: AK-based Prestwick Library Screening Results, E. coli (fold increase in extracellular AK activity)
# [22] = cutoff for positive-scoring molecules 3-fold increase
structure (smiles),measurement,setting,value
C[C@]12C=CC(=O)C=C1CC[C@H]1[C@@H]3C[C@@H](O)[C@](O)(C(=O)CO)[C@@]3(C)C[C@H](O)[C@@]12F [Triamcinolone],fold induction at 50 µM,[1]; [8],0.8
same,fold induction at 50 µM,[2]; [9],1.2
same,fold induction at 50 µM,[3]; [10],0.9
same,fold induction at 50 µM,[4]; [11],1
same,fold induction at 50 µM,[5]; [12],0.7
same,fold induction at 50 µM,[6]; [13],0.7
same,fold induction at 50 µM,[7]; [14],1
CCN(CC)CCOC(=O)C(c1ccccc1)c1ccccc1 [Adiphenine hydrochloride],fold induction at 50 µM,"[1]; planktonic S. aureus, 384-well, cutoff for positive-scoring molecules 3-fold increase, read-out: AK-based Prestwick Library Screening Results: S. aureus (increase in extracellular AK activity)",1.3
same,fold induction at 50 µM,"[2]; planktonic E. cloacae, 384-well, cutoff for positive-scoring molecules 3-fold increase, read-out: AK-based Prestwick Library Screening Results: E. cloacae (increase in extracellular AK activity)",1.5
same,fold induction at 50 µM,"[3]; planktonic A. baumannii, 384-well, cutoff for positive-scoring molecules 3-fold increase, read-out: AK-based Prestwick Library Screening Results: A. baumannii (increase in extracellular AK activity)",1.3
same,fold induction at 50 µM,"[4]; planktonic E. faecium, 384-well, cutoff for positive-scoring molecules 3-fold increase, read-out: AK-based Prestwick Library Screening Results: E. faecium (increase in extracellular AK activity)",1
same,fold induction at 50 µM,"[5]; planktonic P. aeruginosa, 384-well, cutoff for positive-scoring molecules 3-fold increase, read-out: AK-based Prestwick Library Screening Results: P. aeruginosa (increase in extracellular AK activity)",0.9
same,fold induction at 50 µM,"[6]; planktonic K. pneumoniae, 384-well, cutoff for positive-scoring molecules 3-fold increase, read-out: AK-based Prestwick Library Screening Results: K. pneumoniae (increase in extracellular AK activity)",1
same,fold induction at 50 µM,"[7]; planktonic E. coli, 384-well, cutoff for positive-scoring molecules 3-fold increase, read-out: AK-based Prestwick Library Screening Results: E. coli (increase in extracellular AK activity)",1.2
Fc1ccc([C@@H]2CCNC[C@H]2COc2ccc3c(c2)OCO3)cc1 [Paroxetine Hydrochloride],fold induction at 50 µM,"[1]; cutoff for positive-scoring molecules 3-fold increase, read-out: AK-based Prestwick Library Screening Results, S. aureus (fold increase in extracellular AK activity)",1.4
same,fold induction at 50 µM,"[2]; cutoff for positive-scoring molecules 3-fold increase, read-out: AK-based Prestwick Library Screening Results, E. cloacae (fold increase in extracellular AK activity)",1.6
same,fold induction at 50 µM,"[3]; cutoff for positive-scoring molecules 3-fold increase, read-out: AK-based Prestwick Library Screening Results, A. baumannii (fold increase in extracellular AK activity)",1.3
same,fold induction at 50 µM,"[4]; cutoff for positive-scoring molecules 3-fold increase, read-out: AK-based Prestwick Library Screening Results, E. faecium (fold increase in extracellular AK activity)",0.9
same,fold induction at 50 µM,"[5]; cutoff for positive-scoring molecules 3-fold increase, read-out: AK-based Prestwick Library Screening Results, P. aeruginosa (fold increase in extracellular AK activity)",1.3
same,fold induction at 50 µM,"[6]; cutoff for positive-scoring molecules 3-fold increase, read-out: AK-based Prestwick Library Screening Results, K. pneumoniae (fold increase in extracellular AK activity)",1.2
same,fold induction at 50 µM,"[7]; cutoff for positive-scoring molecules 3-fold increase, read-out: AK-based Prestwick Library Screening Results, E. coli (fold increase in extracellular AK activity)",1.4
N=C(N)N/N=C/c1c(Cl)cccc1Cl [Guanabenz acetate],fold induction at 50 µM,[1]; [8],0.5
same,fold induction at 50 µM,[2]; [9],0.7
same,fold induction at 50 µM,[3]; [10],0.8
same,fold induction at 50 µM,[4]; [11],1
same,fold induction at 50 µM,[5]; [12],0.6
same,fold induction at 50 µM,[6]; [13],0.4
same,fold induction at 50 µM,[7]; [14],0.7
Nc1nc2ncc(CNc3ccc(C(=O)N[C@@H](CCC(=O)O)C(=O)O)cc3)nc2c(=O)[nH]1 [Folic acid],fold induction at 50 µM,[1]; [15],1
same,fold induction at 50 µM,[2]; [16],1.3
same,fold induction at 50 µM,[3]; [17],1.3
same,fold induction at 50 µM,[4]; [18],1.1
same,fold induction at 50 µM,[5]; [19],1.1
same,fold induction at 50 µM,[6]; [20],1
same,fold induction at 50 µM,[7]; [21],1.3
CN1C(C(=O)Nc2ccccn2)=C(O)c2sccc2S1(=O)=O [Tenoxicam],fold induction at 50 µM,[1]; [15],1.2
same,fold induction at 50 µM,[2]; [16],1.6
same,fold induction at 50 µM,[3]; [17],1
same,fold induction at 50 µM,[4]; [18],1
same,fold induction at 50 µM,[5]; [19],1.1
same,fold induction at 50 µM,[6]; [20],0.9
same,fold induction at 50 µM,[7]; [21],1.3
CCCCCN(CCCCC)C(=O)C(CCC(=O)O)NC(=O)c1ccc(Cl)c(Cl)c1 (stereo not shown) [Lorglumide sodium salt],fold induction at 50 µM,"[1]; planktonic, cutoff for positive-scoring molecules 3-fold increase, read-out: AK-based Prestwick Library Screening Results, S. aureus (fold increase in extracellular AK activity)",0.3
same,fold induction at 50 µM,"[2]; planktonic, cutoff for positive-scoring molecules 3-fold increase, read-out: AK-based Prestwick Library Screening Results, E. cloacae (fold increase in extracellular AK activity)",1.3
same,fold induction at 50 µM,"[3]; planktonic, cutoff for positive-scoring molecules 3-fold increase, read-out: AK-based Prestwick Library Screening Results, A. baumannii (fold increase in extracellular AK activity)",0.8
same,fold induction at 50 µM,"[4]; planktonic, cutoff for positive-scoring molecules 3-fold increase, read-out: AK-based Prestwick Library Screening Results, E. faecium (fold increase in extracellular AK activity)",1
same,fold induction at 50 µM,"[5]; planktonic, cutoff for positive-scoring molecules 3-fold increase, read-out: AK-based Prestwick Library Screening Results, P. aeruginosa (fold increase in extracellular AK activity)",0.9
same,fold induction at 50 µM,"[6]; planktonic, cutoff for positive-scoring molecules 3-fold increase, read-out: AK-based Prestwick Library Screening Results, K. pneumoniae (fold increase in extracellular AK activity)",0.7
same,fold induction at 50 µM,"[7]; planktonic, cutoff for positive-scoring molecules 3-fold increase, read-out: AK-based Prestwick Library Screening Results, E. coli (fold increase in extracellular AK activity)",0.9
CCCCC1C(=O)N(c2ccccc2)N(c2ccc(O)cc2)C1=O (stereo not shown) [Oxyphenbutazone],"AK-based Prestwick Library Screening Results, S. aureus (fold increase in extracellular AK activity)",[1]; [22],0.4
same,"AK-based Prestwick Library Screening Results, E. cloacae (fold increase in extracellular AK activity)",[2]; [22],0.5
same,"AK-based Prestwick Library Screening Results, A. baumannii (fold increase in extracellular AK activity)",[3]; [22],0.5
same,"AK-based Prestwick Library Screening Results, E. faecium (fold increase in extracellular AK activity)",[4]; [22],0.9
same,"AK-based Prestwick Library Screening Results, P. aeruginosa (fold increase in extracellular AK activity)",[5]; [22],0.5
same,"AK-based Prestwick Library Screening Results, K. pneumoniae (fold increase in extracellular AK activity)",[6]; [22],0.5
same,"AK-based Prestwick Library Screening Results, E. coli (fold increase in extracellular AK activity)",[7]; [22],0.5
CC(C)NCC(O)COc1ccc(CCOCC2CC2)cc1 (stereo not shown) [Betaxolol hydrochloride],fold induction at 50 µM,[1]; [15],0.9
same,fold induction at 50 µM,[2]; [16],1.6
same,fold induction at 50 µM,[3]; [17],1.4
same,fold induction at 50 µM,[4]; [18],0.9
same,fold induction at 50 µM,[5]; [19],1.1
same,fold induction at 50 µM,[6]; [20],1
same,fold induction at 50 µM,[7]; [21],1.2
C[C@@H]1C[C@H]2[C@@H]3C[C@H](F)C4=CC(=O)C=C[C@]4(C)[C@@]3(Cl)[C@@H](O)C[C@]2(C)[C@H]1C(=O)COC(=O)C(C)(C)C [Clocortolone pivalate],fold induction at 50 µM,"[1]; planktonic S. aureus, positive cutoff 3-fold increase, read-out: AK-based Prestwick library screening result, S. aureus (fold increase in extracellular AK activity)",1.1
same,fold induction at 50 µM,"[2]; planktonic E. cloacae, positive cutoff 3-fold increase, read-out: AK-based Prestwick library screening result, E. cloacae (fold increase in extracellular AK activity)",1.6
same,fold induction at 50 µM,"[3]; planktonic A. baumannii, positive cutoff 3-fold increase, read-out: AK-based Prestwick library screening result, A. baumannii (fold increase in extracellular AK activity)",1.2
same,fold induction at 50 µM,"[4]; planktonic E. faecium, positive cutoff 3-fold increase, read-out: AK-based Prestwick library screening result, E. faecium (fold increase in extracellular AK activity)",1.1
same,fold induction at 50 µM,"[5]; planktonic P. aeruginosa, positive cutoff 3-fold increase, read-out: AK-based Prestwick library screening result, P. aeruginosa (fold increase in extracellular AK activity)",1
same,fold induction at 50 µM,"[6]; planktonic K. pneumoniae, positive cutoff 3-fold increase, read-out: AK-based Prestwick library screening result, K. pneumoniae (fold increase in extracellular AK activity)",1
same,fold induction at 50 µM,"[7]; planktonic E. coli, positive cutoff 3-fold increase, read-out: AK-based Prestwick library screening result, E. coli (fold increase in extracellular AK activity)",1
